Measurements reported in US20210274789A1, “Antimicrobial Surface Treatment” (Kode Biotech Limited, priority 2018, published 2021).

Experiments:
Type in all cases: cell-based
Staphylococcus aureus [1] = experiment: Growth on bandage substrate treated with crystal violet alone or with a construct, resazurin colour change; parameters: key: No growth: dark blue (no growth); Reduced growth: purple (reduced growth); Growth: light red (growth)
Procedure: (§1) Swatches (1 cm diameter circular disks) were cut from the fabric portion of commercially available adhesive bandages (BAND-AID™ Quilt-Aid Technology, Johnson & Johnson). Volumes of 50 μL were dispended onto the surface of the swatches and the swatches allowed to air dry undisturbed at 80° C. The volumes consisted of dispersions or solutions in deionized water of 0.04% (w/v) crystal violet, 0.25 mM or 0.13 mM of the construct designated FSL-Se or the construct designated FSL-0, or water alone. A further volume of 100 μL of 0.04% (w/v) crystal violet in deionized water was dispensed onto the surface of the dried treated swatches and incubated undisturbed at room temperature for 10 minutes before rinsing as before with sterile deionized water.
(§2) Frozen stock cultures of bacterial isolates (Staphylococcus aureus, Staphylococcus epidermis, Escherichia coli or Pseudomonas aeruginosa) were streaked on Columbia sheep blood agar plates (Fort Richard Laboratories) and the plates incubated at 37° C. for 24 hours when separate colonies had developed. Two to three colonies were then transferred to a volume of 10 mL of 21 g/L Muller-Hinton (MH) broth, vortexed and the turbidity measured at 600 nm. The MH broth was diluted with a further volume so that the turbidity provided an optical density of 0.20 for the suspensions of Staphylococcus aureus and Staphylococcus epidermis and 0.08 for the suspensions of Escherichia coli and Pseudomonas aeruginosa. The diluted suspensions (around 10^8 cfu/mL) were serially diluted.
(§3) Individual treated swatches from each treatment group were placed at the base of separate wells in a 96-well cell culture plate. Volumes of 10 μL of serial dilutions of the suspensions of bacteria were dispensed onto the surface of the swatches (excluding the negative control). The inoculated swatches were then incubated undisturbed at room temperature for 10 minutes before dispensing into each well a volume of 50 μL of sterile deionized water and 150 μL of MH broth containing 0.02% resazurin sodium salt (Sigma-Aldrich).
(§4) The colour change (if any) observed in each well was observed after incubation of the plate for 24 hours at 37° C. Observations are recorded in Tables 1, 2, 3 and 4.

Pseudomonas aeruginosa [2] = experiment: as above; parameters: key: No growth: dark blue (no growth); Reduced growth: purple (reduced growth); Growth: light red (growth); conditions: crystal violet alone
Procedure: as §1, §2, §3, §4

Escherichia coli [3] = experiment: as above; parameters: key: No growth: dark blue (no growth); Reduced growth: purple (reduced growth); Growth: light red (growth); conditions: crystal violet alone
Procedure: as §1, §2, §3, §4

Staphylococcus aureus [4] = experiment: AgNP augmented antibacterial surface treatment of adhesive bandage swatches, resazurin; parameters: key: Growth: growth (growth); Inhibition: inhibition of growth (inhibition); No growth: prevention of growth (no growth); conditions: 37° C. for 24 hours, duplicate swatches
Procedure: (§5) Preparation of negatively charged silver nanoparticles Negatively charged nanoparticles of silver (AgNPs) were prepared according to the following method. Quantities of 2 g glucose and 1 g polyvinylpyrrolidone (PVP) were dissolved in water and the resultant volume heated to 90° C. A quantity of 0.5 g of silver nitrate (AgNO3) was dissolved in a separate volume of 1 mL water and the two volumes then rapidly mixed. The mixed volume was maintained at a temperature of 90° C. for a period of time of one hour before cooling to room temperature. The AgNPs were collected by repeated (3 times) centrifugation at 14,000 rpm for a period of time of 60 minutes and resuspension in deionised filtered water (Milli-Q) to remove excess oxidation products, PVP and silver ion (Ag^+). The washed suspension of AgNPs was stored in the dark at 4° C. The AgNPs were characterised by […] dispersive spectroscopy (EDS) and UV-Vis absorbance scanning.
(§6) Swatches (5×5 mm squares) were cut from the fabric portion of commercially available adhesive bandages (BAND-AID™, Quilt-Aid Technology, Johnson & Johnson). A volume of 50 μL of a 0.13 mM dispersion of one of the following constructs was pipetted onto the surface of a swatch: FSL-biotin, FSL-0, FSL-HA17 kDa, FSL-Se and FSL-spm.
(§7) The swatches were air-dried at a temperature of 80° C. prior to washing (3 times) with sterile, filtered, deionised water (Milli-Q).
(§8) Controls were prepared without contacting the swatches with constructs or without washing following contacting the swatches with construct. Individual treated squares (including controls) were placed in the bottom of individual wells of a 96-well plate and inoculated with a volume of 10 μL of a serial dilution of a log phase culture in Mueller Hinton (MH) broth of one of the following bacteria: • Staphylococcus aureus • Staphylococcus epidermis • Escherichia coli • Pseudomonas aeruginosa
(§9) The inoculated swatches were then incubated for 10 minutes before dispensing into each well of the plate a volume of 50 μL of sterile, filtered, deionised water (Milli-Q) and 150 μL of MH broth containing 0.00266% (w/v) resazurin and incubating for a period of time of 24 hours at a temperature of 37° C. The observations of resulting growth (as indicated by a colour change from blue to red) from the estimated bacterial load (2.5×10^4 or 2.5×10^6 colony forming units (cfu)) for each treatment and species of bacterium are recorded in Tables 5 to 8.

Pseudomonas aeruginosa [5] = experiment: as above; parameters: key: Growth: growth (growth); Inhibition: inhibition of growth (inhibition); No growth: prevention of growth (no growth); conditions: 37° C. for 24 hours, duplicate swatches
Procedure: as §5, §6, §7, §8, §9

Escherichia coli [6] = experiment: as above; parameters: key: Growth: growth (growth); Inhibition: inhibition of growth (inhibition); No growth: prevention of growth (no growth); conditions: 37° C. for 24 hours, duplicate swatches
Procedure: as §5, §6, §7, §8, §9

Staphylococcus epidermis [7] = experiment: as above; parameters: key: Growth: growth (growth); Inhibition: inhibition of growth (inhibition); No growth: prevention of growth (no growth); conditions: 37° C. for 24 hours, duplicate swatches
Procedure: as §5, §6, §7, §8, §9

Staphylococcus epidermis [8] = experiment: Growth on bandage substrate treated with crystal violet alone or with a construct, resazurin colour change; parameters: key: No growth: dark blue (no growth); Reduced growth: purple (reduced growth); Growth: light red (growth); conditions: 0.25 mM construct in combination with crystal violet
Procedure: as §1, §2, §3, §4

[9] = challenge 1.5 × 10^4 to 10^5 cfu
[10] = unwashed following application of the FSL construct, load 2.53 × 10^4 cfu
[11] = unwashed following application of the FSL construct, load 2.53 × 10^6 cfu
[12] = washed following application of the FSL construct, load 2.53 × 10^4 cfu
[13] = washed following application of the FSL construct, load 2.53 × 10^6 cfu
[14] = unwashed following application of the FSL construct, load 1.75 x 10^4 cfu
[15] = unwashed following application of the FSL construct, load 1.75 × 10^6 cfu
[16] = washed following application of the FSL construct, load 1.75 x 10^4 cfu
[17] = washed following application of the FSL construct, load 1.75 x 10^6 cfu
[18] = unwashed following application of the FSL construct, load 1.99 × 10^4 cfu
[19] = unwashed following application of the FSL construct, load 1.99 × 10^6 cfu
[20] = washed following application of the FSL construct, load 1.99 × 10^4 cfu
[21] = washed following application of the FSL construct, load 1.99 × 10^6 cfu
[22] = unwashed following application of the FSL construct, load 2.11 × 10^4 cfu
[23] = unwashed following application of the FSL construct, load 2.11 × 10^6 cfu
[24] = washed following application of the FSL construct, load 2.11 × 10^4 cfu
[25] = washed following application of the FSL construct, load 2.11 × 10^6 cfu

| Compound | Observations of growth, inhibition of growth or prevention of growth (Staphylococcus aureus [4]; [10]) | Observations of growth, inhibition of growth or prevention of growth (Staphylococcus aureus [4]; [11]) | Observations of growth, inhibition of growth or prevention of growth (Staphylococcus aureus [4]; [12]) | Observations of growth, inhibition of growth or prevention of growth (Staphylococcus aureus [4]; [13]) | Observations of growth, inhibition of growth or prevention of growth (Pseudomonas aeruginosa [5]; [14]) | Observations of growth, inhibition of growth or prevention of growth (Pseudomonas aeruginosa [5]; [15]) | Observations of growth, inhibition of growth or prevention of growth (Pseudomonas aeruginosa [5]; [16]) | Observations of growth, inhibition of growth or prevention of growth (Pseudomonas aeruginosa [5]; [17]) | Observations of growth, inhibition of growth or prevention of growth (Escherichia coli [6]; [18]) | Observations of growth, inhibition of growth or prevention of growth (Escherichia coli [6]; [19]) | Observations of growth, inhibition of growth or prevention of growth (Escherichia coli [6]; [20]) | Observations of growth, inhibition of growth or prevention of growth (Escherichia coli [6]; [21]) | Observations of growth, inhibition of growth or prevention of growth (Staphylococcus epidermis [7]; [22]) | Observations of growth, inhibition of growth or prevention of growth (Staphylococcus epidermis [7]; [23]) | Observations of growth, inhibition of growth or prevention of growth (Staphylococcus epidermis [7]; [24]) | Observations of growth, inhibition of growth or prevention of growth (Staphylococcus epidermis [7]; [25]) | further results |
| --- | --- | --- | --- | --- | --- | --- | --- | --- | --- | --- | --- | --- | --- | --- | --- | --- | --- |
| CN(C)c1ccc(C(=C2C=CC(=[N+](C)C)C=C2)c2ccc(N(C)C)cc2)cc1.[Cl-] [Crystal violet, N-[4-[bis[4-(dimethylamino)phenyl]methylene]-2,5-cyclohexadien-1-ylidene]-N-methyl-methanaminium chloride] | Growth | Growth | Growth | Growth | Growth | Growth | Growth | Growth | Growth | Growth | Growth | Growth | Inhibition | Growth | Inhibition | Growth | Growth monitored by colour change of resazurin containing MH broth (Staphylococcus aureus [1]; crystal violet alone, challenge 500 to 1,000 cfu): No growth; Growth monitored by colour change of resazurin containing MH broth (Pseudomonas aeruginosa [2]; [9]): Growth; Growth monitored by colour change of resazurin containing MH broth (Pseudomonas aeruginosa [2]; challenge 5 × 10^3 to 10^4 cfu): Growth; Growth monitored by colour change of resazurin containing MH broth (Pseudomonas aeruginosa [2]; challenge 10^3 to 5 × 10^3 cfu): Growth; Growth monitored by colour change of resazurin containing MH broth (Pseudomonas aeruginosa [2]; challenge <500 cfu): Growth; Growth monitored by colour change of resazurin containing MH broth (Pseudomonas aeruginosa [2]; challenge >10^5 cfu): Growth; Growth monitored by colour change of resazurin containing MH broth (Escherichia coli [3]; [9]): Growth; Growth monitored by colour change of resazurin containing MH broth (Escherichia coli [3]; challenge 5 × 10^3 to 10^4 cfu): Growth; Growth monitored by colour change of resazurin containing MH broth (Escherichia coli [3]; challenge 500 to 1,000 cfu): Growth; Growth monitored by colour change of resazurin containing MH broth (Escherichia coli [3]; challenge >10^5 cfu): Growth |
| NCSeCH2CO-CMG(2)-Ad-DOPE [FSL-Se] | Growth | Growth | Growth | Growth | Growth | Growth | Growth | Growth | Growth | Growth | Growth | Growth | Growth | Growth | Growth | Growth | Growth monitored by colour change of resazurin containing MH broth (Staphylococcus aureus [1]; 0.25 mM construct in combination with crystal violet, challenge 1.5 × 10^4 to 10^5 cfu): No growth; Growth monitored by colour change of resazurin containing MH broth (Staphylococcus aureus [1]; 0.25 mM construct in combination with crystal violet, challenge 10^3 to 5 × 10^3 cfu): No growth; Growth monitored by colour change of resazurin containing MH broth (Staphylococcus aureus [1]; 0.25 mM construct in combination with crystal violet, challenge >10^5 cfu): No growth; Growth monitored by colour change of resazurin containing MH broth (Staphylococcus epidermis [8]; challenge 10^3 to 5 × 10^3 cfu): No growth; Growth monitored by colour change of resazurin containing MH broth (Staphylococcus epidermis [8]; challenge 10^4 to 1.5 × 10^4 cfu): No growth; Growth monitored by colour change of resazurin containing MH broth (Staphylococcus epidermis [8]; challenge >10^5 cfu): No growth |
